Assay results from PMC6052416, “Selective inhibition of carbonic anhydrase-IX by sulphonamide derivatives induces pH and reactive oxygen species-mediated apoptosis in cervical cancer HeLa cells” (Journal of Enzyme Inhibition and Medicinal Chemistry, 2018).
Where two headings read alike, the source gives them in different places.

How the values were obtained:
[1] = system: HeLa (cervix adenoma cancer cell); test: WST-1 cytotoxicity, HeLa; type: cell-based, human
Method: (§1) Cancer and normal cell lines were purchased from ATCC and stored in liquid nitrogen. HT-29 (colon adenoma cancer), HeLa (cervix adenoma cancer cell), MDA-MB-231 (breast adenoma cancer cell), HEK-293 (embryonic kidney epithelial cell) and PNT-1A (normal prostate cells) cell lines were incubated in DMEM: F-12 and RPMI-1640, including 10% foetal bovine serum (FBS), 100 µg/mL streptomycin/100 IU/mL penicillin, at 37 °C in an incubator containing 5% CO2, 95% air in a humid atmosphere.
(§2) The cytotoxic effects of the substances were evaluated with WST-1 kits (Roche, Germany) in accordance with the manufacturer’s protocols. The cells were planted in 96-well plates (10^4 cells in each well). After incubation for 24 h, the media were discarded and the substances and 5-Fu as the control drug, at doses of 0, 2.5, 5, 10, 25, 50, 100 and 200 µM, were incubated for 24, 48 and 72 h. WST-1 reactive of 10 µL was added to all wells. Following 4-h incubation, the measurements were taken on a plate reader (Spectramax M5) at wavelengths of 450 and 630 nm. Graphs were then created and the IC50 value of each substance was calculated.

[2] = system: HEK-293 (embryonic kidney epithelial cell); test: WST-1 cytotoxicity, HEK-293; type: cell-based; conditions: normal cell
Method: as §1, §2

hCA IX = biological target: hCA IX; design: method as in PMID 25913118, PMID 26803577; conditions: cited from earlier work
[3] = system: MDA-MB-231 (breast adenoma cancer cell); test: WST-1 cytotoxicity, MDA-MB-231; type: cell-based, human
Method: as §1, §2

[4] = system: HT-29 (colon adenoma cancer); test: WST-1 cytotoxicity, HT-29; type: cell-based, human
Method: as §1, §2

[5] = system: PNT-1A (normal prostate cells); test: WST-1 cytotoxicity, PNT-1A; type: cell-based; conditions: normal cell
Method: as §1, §2

hCA XII = biological target: hCA XII; design: method as in PMID 25913118, PMID 26803577; conditions: cited from earlier work
[6] = WST-1, 24 h, mean of three experiments, read-out: IC50 HeLa 24 h
[7] = WST-1, 48 h, read-out: IC50 HeLa 48 h
[8] = WST-1, 24 h, read-out: IC50 HEK-293 24 h
[9] = WST-1, 72 h, read-out: IC50 HEK-293 72 h
[10] = WST-1, 48 h, read-out: IC50 MDA-MB-231 48 h
[11] = WST-1, 72 h, read-out: IC50 MDA-MB-231 72 h
[12] = WST-1, 24 h, read-out: IC50 HT-29 24 h
[13] = WST-1, 48 h, read-out: IC50 HT-29 48 h
[14] = WST-1, 72 h, read-out: IC50 HT-29 72 h
[15] = WST-1, 72 h, read-out: IC50 HeLa 72 h
[16] = WST-1, 48 h, read-out: IC50 HEK-293 48 h
[17] = WST-1, 24 h, read-out: IC50 PNT-1A 24 h
[18] = WST-1, 48 h, read-out: IC50 PNT-1A 48 h
[19] = WST-1, 72 h, read-out: IC50 PNT-1A 72 h

SMILES: Cc1cccc(C=NCCc2ccc(S(N)(=O)=O)cc2)c1O [Compound 2]
- IC50 [1, 6]: 27.1 ± 1.3 µM
- IC50 [1, 7]: 49.6 ± 0.8 µM
- IC50 [2, 8]: 114 ± 3.44 µM
- IC50 [2, 9]: 75.2 ± 5.6 µM
- Ki (hCA IX): 0.295 µM

SMILES: Cc1cccc(C=Nc2ccc(S(N)(=O)=O)cc2)c1O [Compound 3]
- IC50 [1, 6]: 36.3 ± 0.2 µM
- IC50 [1, 7]: 29.8 ± 2.3 µM
- IC50 [3, 10]: 80.6 ± 12.4 µM
- IC50 [3, 11]: 96.7 ± 33.4 µM
- IC50 [2, 8]: 196 ± 14.3 µM
- IC50 [2, 9]: 37.9 ± 3.6 µM
- Ki (hCA IX): 0.465 µM

SMILES: Cc1ccc(C=NCCc2ccc(S(N)(=O)=O)cc2)cc1 [Compound 4]
- IC50 [4, 12]: 33 ± 2.3 µM
- IC50 [4, 13]: 23.7 ± 2.2 µM
- IC50 [4, 14]: 119 ± 23.2 µM
- IC50 [3, 11]: 178 ± 11.2 µM
- IC50 [2, 9]: 96.2 ± 12.2 µM
- Ki (hCA IX): 0.123 µM

SMILES: O=c1[nH]cc(F)c(=O)[nH]1 [Compound 5-FU, reference compound]
- IC50 [1, 6]: 37.8 ± 4.3 µM
- IC50 [1, 7]: 31.2 ± 2.3 µM
- IC50 [1, 15]: 14.7 ± 0.6 µM
- IC50 [4, 12]: 47.3 ± 1.2 µM
- IC50 [4, 13]: 23.4 ± 2.1 µM
- IC50 [4, 14]: 19.3 ± 1.2 µM
- IC50 ([3]; WST-1, 24 h, read-out: IC50 MDA-MB-231 24 h): 42.6 ± 2.56 µM
- IC50 [3, 10]: 37.9 ± 12.3 µM
- IC50 [3, 11]: 21 ± 4.3 µM
- IC50 [2, 8]: 44.6 ± 7.2 µM
- IC50 [2, 16]: 19.8 ± 2.3 µM
- IC50 [2, 9]: 14.5 ± 3.2 µM
- IC50 [5, 17]: 23.1 ± 4.55 µM
- IC50 [5, 18]: 21.2 ± 2.2 µM
- IC50 [5, 19]: 17.5 ± 7.6 µM

SMILES: Cc1ccc(C=Nc2ccc(S(N)(=O)=O)cc2)cc1 [Compound 5]
- IC50 [1, 7]: 182 ± 12.2 µM
- IC50 [3, 10]: 74.7 ± 12.4 µM
- IC50 [2, 9]: 170 ± 11.2 µM
- Ki (hCA IX): 0.0237 µM
- Ki (hCA XII): 0.0099 µM

SMILES: COc1ccc(C=Nc2ccc(S(N)(=O)=O)cc2)cc1 [Compound 6]
- IC50 [1, 7]: 198 ± 14.3 µM
- IC50 [1, 15]: 123 ± 11.1 µM
- IC50 [4, 14]: 187 ± 23.4 µM
- IC50 [2, 9]: 100 ± 22.2 µM
- IC50 [5, 17]: 154 ± 16.5 µM
- IC50 [5, 18]: 120 ± 11.2 µM
- IC50 [5, 19]: 76.4 ± 13.3 µM
- Ki (hCA IX): 0.883 µM
- Ki (hCA XII): 0.0112 µM

SMILES: COc1ccc(C=NCCc2ccc(S(N)(=O)=O)cc2)cc1 [Compound 7]
- IC50 [3, 10]: 123 ± 12.3 µM
- IC50 [3, 11]: 98.2 ± 11.2 µM
- IC50 [2, 8]: 120 ± 13.8 µM
- IC50 [2, 16]: 98.3 ± 11.2 µM
- IC50 [2, 9]: 85.4 ± 11.2 µM
- IC50 [5, 18]: 190 ± 8.6 µM
- IC50 [5, 19]: 130 ± 32.2 µM
- Ki (hCA IX): 0.231 µM
